Experimental data reported in patent publication US8815946B2, “Inhibition of proliferation and fibrotic response of activated corneal stromal cells” (University of Pittsburgh—of the Commonwealth System of …, priority 2008, dated 2014).
Entries after “also recorded” stand apart in the source; their conditions may differ.

Key:
[1] = test system: alpha-smooth muscle actin; assay: Western blot of TGF-β1 activated rabbit corneal keratocytes: alpha-smooth muscle actin; assay type: cell-based; conditions: TGF-β1 (10 ng/ml)+1% FBS, two days, compared to controls with no treatment, listed as EP
Protocol: FIGS. 19A and 19B. Western blot analyses: Rabbit corneal keratocytes were isolated and cultured in serum-free DMEM/F12 into 60 mm tissue culture dishes. After 24 hrs of incubation, the media were replaced with DMEM/F12 medium containing TGF-β1(10 ng/ml)+1% FBS without (control) or with EP or EP-derivatives for two days. The cells were extracted in RIPA buffer and the extracts containing 5 μg of total proteins were loaded per lane for Western blot analysis.
Keratocytes or fibroblasts grown under different culture conditions were extracted in RIPA buffer (9.1 mM dibasic sodium phosphate, 1.7 mM monobasic sodium phosphate, 150 mM NaCl, pH, 7.4, 1% Nonidet P-40, 0.5% sodium deoxycholate, 0.1% SDS, 0.03 TIU/mL aprotinin, 1 mM sodium orthovanadate, and 100 μg/mL phenylmethylsulfonyl fluoride (PMSF)). Aliquots of cell extracts containing 50 or 100 μg protein were subjected to SDS-PAGE. Protein bands on SDS-PAGE were electrophoretically transferred to IMMOBILON-P™ membrane (Millipore Corp., Bedford, Mass.), stained with 0.1% Coomassie blue 250 in 40% methanol/1% acetic acid for 1 minute, destained one to three times with 50% methanol/1% acetic acid, scanned for densitometric comparisons of relative concentrations of proteins per lane, destained with methanol, and subjected to Western blot analysis. Immunoreactive bands were detected using chemiluminescence Western chemiluminescence reagents.
As described in Example 1, corneal stromal cells were isolated from rabbit corneas and cultured using the same procedures. The keratocytes in serum free media were treated with b-FGF (40 ng/ml)+HS (5 μg/ml) with or without 15 mM EP or 1, 2.5 or 5 mM following EP derivatives: 2-oxopropionic acid 3-methoxyphenyl ester, 2-oxopropionic acid 2-ethoxyethyl ester, 2-oxopropionic acid 2-chloroethyl ester, 2-oxopropionic acid isopropyl ester, 2-oxopropionic acid butyl ester, 2-oxopropionic acid p-tolyl ester, 2-oxopropionic acid tert-butyl ester. […] The relative levels of the expression of specific proteins were analyzed by Western blot analyses of the cell lysates as described supra.

[2] = cited from earlier work
α-SMA = assay: Immunocytochemical analysis of α-SMA expression, human corneal stromal cells; assay type: cell-based; conditions: 10 mM EP
Protocol: FIG. 3. Immunocytochemical analysis of α-SMA expression. Human corneal stromal cells in P2 growing in DMEM/F12 with 10% FBS were subcultured into desired number of 35 mm tissue culture dishes. After 24 hrs of incubation, the media were replaced with DMEM/F12 medium containing 1% FBS and TGF-β1 with or without (control) 10 mM EP and incubated for two and four days (media were changed every 24 hours). The cells were fixed and double stained for α-SMA (green) and phalloidin (red) using an indirect fluorescence technique as described herein.
For immunocytochemical analyses, the cells were cultured on glass cover slips or tissue culture dishes. Cells were rinsed with phosphate-buffered saline (PBS), fixed with paraformaldehyde-lysine-periodate and permeabilized with PIPES buffer containing 0.2% Triton X-100, as described previously (Guerriero et al., Invest. Opthalmol. Vis. Sci. 2007; 48: 627-635). Fixed and permeabilized cells were reacted with 10% heat-inactivated goat serum in PBS, pH 7.5, for 45 minutes to block the nonspecific binding of the secondary antibody, rinsed with PBS, and then treated with the primary and secondary antibodies as described previously (Guerriero et al. Invest. Opthalmol. Vis. Sci. 2007; 48: 627-635). Primary antibodies included monoclonal rat anti-α smooth muscle actin (SMA) and anti-fibronectin. […]

CD-45+ leukocytes = assay: Mouse corneal wound model, FACS with pan-leukocyte marker CD-45+; assay type: in vivo, Mus musculus strain C57
Excerpt: A mouse model of corneal wound healing and inflammation induced by lipopolysacharide (LPS) was used to test the effect of EP. Khatari et al., Invest. Opthalmol. Vis. Sci. (2002) 43:2278-2284. Briefly, mice (Mus musculus strain C57, age approx. 2 months) were obtained from Charles River Laboratories in accordance with institutional protocols and divided into the following treatment groups (with 3 samples in each group):
Prior to wounding, all mice were anesthetized with an intraperitoneal injection of 50 mg/kg ketamine with 5 mg/kg xylazine. Topical anesthesia was further achieved with an additional 1 drop of 0.5% proparacaine per eye. Once the animal was sufficiently anesthetized, a corneal wound was constructed in each eye using a sterile 26-gauge needle that penetrated the epithelium and the superficial layers of the stroma. This linear scratch extended from the medial to lateral canthus (FIG. 12). 10 μg of the bacterial super-antigen LPS (Pseudomonas aeruginosa lipopolysaccharide, Sigma) was applied to the wound using a 10 μl pipette and allowed to penetrate the cornea for 5 minutes. Addition of bacterial endotoxin ensured a robust inflammatory response.
The wound was then washed with phosphate buffered saline (PBS/non-pyrogenic dH2O). […] The delivery and concentration of EP was determined according to Devamanoharan et al. (1999); 200(1-2):103-09. […]

Structure (SMILES): CCOC(=O)C(C)=O [ethyl pyruvate]
- alpha-smooth muscle actin levels (Western blot) [1]: reduced expression; also recorded: reduced levels
- time to diffuse into the aqueous humor ([2]; applied on the surface of the eye): ≤ 15 min
- entry into the anterior chamber ([2]; diffuses through conjunctival tissue or into corneal stroma): within minutes
- elimination half-life ([2]; in vivo): approximately 90 minutes
- TGF-β1 induced expression of α-SMA (immunocytochemical) (α-SMA): downregulated
- inflammatory cells (CD-45+) by FACS (CD-45+ leukocytes; day 1 post-wounding): 28.50±12.02
- inflammatory cells (CD-45+) by FACS (CD-45+ leukocytes; day 2 post-wounding): 163.00±57.42
